Like-named read-outs stand apart in the source and are kept apart here.
Experiments:
[1] = β-Carotene/linoleic acid co-oxidation assay
Experimental: The evaluation of the antioxidant activity using the β-carotene/linoleic acid co-oxidation system was performed according to Duarte-Almeida et al., with adaptations. The extracts were solubilized in MeOH (2.2 mg/mL) and further diluted to concentrations ranging from 3.125 to 200 μg/mL. An aliquot of 25 μL of sample solutions were added in the 96-well microplate. 25 mg of linoleic acid and 100 mg Tween 20 (Sigma, St. Louis, MO, USA) were added to a round-bottom flask containing 1 mL of a β-carotene solution (1 mg/mL, Sigma, St. Louis, MO, USA) in chloroform. The latter was removed in a rotatory evaporator and, then, 50 mL of aerated water was added to the flask, affording the β-carotene emulsion. Portions of 250 μL of the freshly prepared emulsion were added to the wells corresponding to the odd columns of a microplate. […] Readings were performed immediately at 470 nm. After the first reading, the microplate was incubated at 45 °C and the kinetic cycle was performed with readings at 15 min intervals for a total of 120 min. The antioxidant activity was expressed as % of inhibition of lipid peroxidation (%I), using the formula (I% = Ac (initial abs − Final abs) − Aam (final abs − Initial abs)/Ac × 100). Assays were performed in triplicate and IC50 values were determined by non-linear regression using GraphPad Prism, version 6.0 (GraphPad Software, San Diego, CA, USA).

[2] = target: T1, acetylcholinesterase enzyme (Electropardus electricous type VI-S) (Electrophorus electricus, UniProt O42275); assay: AChE bioautographic assay (TLC); type: biochemical; design: key: -: not active; +: slight inhibition; ++++: strong inhibition; settings: intensity of white bands
T1 construct: purchased Sigma-Aldrich, St. Louis, MO, USA type VI-S (catalogue number not given)
T1 sequence (O42275 24-633): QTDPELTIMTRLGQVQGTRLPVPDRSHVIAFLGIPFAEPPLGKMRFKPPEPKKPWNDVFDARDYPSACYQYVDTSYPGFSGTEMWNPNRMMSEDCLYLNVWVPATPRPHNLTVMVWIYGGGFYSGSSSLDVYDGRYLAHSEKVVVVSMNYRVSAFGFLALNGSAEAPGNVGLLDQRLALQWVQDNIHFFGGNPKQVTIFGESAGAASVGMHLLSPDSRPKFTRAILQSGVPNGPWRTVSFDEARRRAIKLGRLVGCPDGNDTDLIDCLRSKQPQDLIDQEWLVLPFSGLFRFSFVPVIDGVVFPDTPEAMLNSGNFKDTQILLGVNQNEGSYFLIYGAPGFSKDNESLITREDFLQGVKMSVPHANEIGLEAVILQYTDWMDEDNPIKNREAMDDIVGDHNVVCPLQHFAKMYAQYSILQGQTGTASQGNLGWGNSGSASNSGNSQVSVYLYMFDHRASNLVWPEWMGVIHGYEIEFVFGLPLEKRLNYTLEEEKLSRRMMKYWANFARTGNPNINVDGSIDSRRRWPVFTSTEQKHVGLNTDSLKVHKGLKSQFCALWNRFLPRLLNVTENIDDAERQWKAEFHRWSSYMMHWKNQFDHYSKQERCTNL
Experimental: The bioautographic assay was performed by thin layer chromatography (TLC) according to the method proposed by Marston, Kissling and Hostettman. The extracts were solubilized in methanol (Merck) at 20 mg/mL, and a portion of 10 μL of this solution was applied on a TLC plate (silica gel 60 F254, Merck, Darmstadt, Germany), which was eluted with CHCl3:MeOH (9:1). The acetylcholinesterase enzyme (Electropardus electricous type VI-S, Sigma-Aldrich, St. Louis, MO, USA) solution was prepared by diluting 1 KU of the enzyme in 30 mL of Tris/HCl buffer, pH 7.8, with the addition of 30 mg of bovine serum albumin (BSA). The enzyme solution was sprayed on the TLC plate and incubated in a humid chamber at 37 °C for 20 min. The substrate solution was prepared using 1-naphthyl acetate (2.5 mg/mL) and Fast Blue B salt (2.5 mg/mL), and sprayed on the TLC plate after the incubation period. […] The result was expressed by the intensity of the white bands observed.

[3] = design: method as in Dar et al. [63]; settings: ref Dar et al. [63]; cited from earlier work
[4] = test system: 1-acylglycerol-3-phosphate O-acyltransferase ABHD5; design: method as in PubChem Bioassay AID 493027; settings: ref PubChem Bioassay AID 493027; cited from earlier work
[5] = test system: 1-acylglycerol-3-phosphate O-acyltransferase ABHD5; design: method as in PubChem Bioassay AID 493035; settings: ref PubChem Bioassay AID 493035; cited from earlier work
[6] = test system: Activators, heat shock response; design: method as in PubChem Bioassay AID 743210; settings: ref PubChem Bioassay AID 743210; cited from earlier work
[7] = test system: Agonist, peroxisome proliferator-activated receptor delta (PPARd); design: method as in PubChem Bioassay AID 743227; settings: ref PubChem Bioassay AID 743227; cited from earlier work
Anticancer, colon = test system: Anticancer, colon; design: method as in PubChem Bioassay AID 1834; settings: ref PubChem Bioassay AID 1834; cited from earlier work
Anticancer, Leukemia = test system: Anticancer, Leukemia; design: method as in PubChem Bioassay AID 258; settings: ref PubChem Bioassay AID 258; cited from earlier work
Anti-Inflammatory model [8] = test system: Anti-Inflammatory model; design: method as in PubChem Bioassay AID 457; settings: ref PubChem Bioassay AID 457; cited from earlier work
Anti-Inflammatory model [9] = test system: Anti-Inflammatory model; design: method as in PubChem Bioassay AID 1309; settings: ref PubChem Bioassay AID 1309; cited from earlier work
[10] = test system: Anti-Inflammatory model (counterscreen); design: method as in PubChem Bioassay AID 1318; settings: ref PubChem Bioassay AID 1318; cited from earlier work
[11] = test system: beta-2 adrenergic receptor; design: method as in PubChem Bioassay AID 504459; settings: ref PubChem Bioassay AID 504459; cited from earlier work
Cytotoxicity = test system: Cytotoxicity; design: method as in PubChem Bioassay AID 624476; settings: ref PubChem Bioassay AID 624476; cited from earlier work
Cytotoxicity, A549 = test system: Cytotoxicity, A549; design: method as in PubChem Bioassay AID 371; settings: ref PubChem Bioassay AID 371; cited from earlier work
[12] = test system: Cytotoxicity, Activators, heat shock response (counterscreen); design: method as in PubChem Bioassay AID 743209; settings: ref PubChem Bioassay AID 743209; cited from earlier work
[13] = test system: Cytotoxicity, Agonist, RXR; design: method as in PubChem Bioassay AID 1159529; settings: ref PubChem Bioassay AID 1159529; cited from earlier work
[14] = test system: Cytotoxicity, Antagonist, androgen receptor (AR); design: method as in PubChem Bioassay AID 1259242; settings: ref PubChem Bioassay AID 1259242; cited from earlier work

COc1cc([C@@H]2c3cc4c(cc3[C@H](O)[C@H]3COC(=O)[C@H]23)OCO4)cc(OC)c1OC [Podophyllotoxin, podophyllotoxin]
Antioxidant Activity (IC50-µg/mL) β-Carotene/linoleic Acid [1]: >200 µg/mL
Inhibition of AChE TLC [2]: -
IC50 TBARS lipid peroxidation [3]: higher than 250 μg/mL
Exper. Activity [4]: Inactive
Exper. Activity [5]: Inactive
Exper. Activity [6]: Inactive
Exper. Activity [7]: Inactive
Exper. Activity (Anticancer, colon): Active
Exper. Activity (Anticancer, Leukemia): Inactive
Exper. Activity (Anti-Inflammatory model [8]): Inactive
Exper. Activity (Anti-Inflammatory model [9]): Active
Exper. Activity [10]: Inactive
Exper. Activity [11]: Inactive
Exper. Activity (Cytotoxicity): Inactive
Exper. Activity (Cytotoxicity, A549): Active
Exper. Activity [12]: Inactive
Exper. Activity [13]: Inactive
Exper. Activity [14]: Inactive
